We go through 23 compounds from paper PMC10402865, “Fragment-based design, synthesis and biological evaluation of theophylline derivatives as ATAD2 inhibitors in BT-549 cells” (Journal of Enzyme Inhibition and Medicinal Chemistry, 2023).

Data set [1] relates to BT-549 cells. Nature of the data set: Cell viability (MTT) assay, anti-proliferative activity. Type of data set: cell-based. The following applies: Homo sapiens, MTT, 24 h, mean ± SD. On the procedure:
BT-549 cells were seeded at a density of 5 × 10^4 cells/ml in a 96-well plate. Following a 24-h incubation period, the cells were exposed to various concentrations of different compounds for the specified durations. Cell viability was evaluated using an MTT assay.

The target in data set [2] is T1, ATAD2 recombinant bromodomain protein (Homo sapiens, UniProt Q6PL18).
T1 sequence (Q6PL18 980-1092 limits assumed): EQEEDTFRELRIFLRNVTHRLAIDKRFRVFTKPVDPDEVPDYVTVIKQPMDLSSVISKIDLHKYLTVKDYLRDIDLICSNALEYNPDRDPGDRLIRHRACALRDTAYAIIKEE
Nature of the data set: ATAD2 enzymatic assay by TR-FRET technology. Conditions: for ATAD2 inhibitory activity, in words / IC50: TR-FRET; for IC50: mean ± SD, read-out: Kinase inhibitory activity (IC50, μM) ATAD2. It is filed as binding. As to the method: The assay was performed by TR-FRET technology using recombinant bromodomain and BET Ligand[8]. The compounds were diluted with indicated folds in 5% DMSO in reaction buffer and 2 µl of the dilution was added to a 20 µl reaction so that the final concentration of DMSO is 0.5% in all of the reactions. The 20 µl reaction mixture consists of the ATAD2 recombinant bromodomain protein, the indicated amount of the inhibitor, ligand, and the reactive dyes. The reaction mixture was incubated for 3 h before reading the TR-FRET signal. Fluorescence signals for both the donor and acceptor dyes were measured using a Tecan Infinite M1000 plate reader. Binding experiments were performed in duplicate at each concentration and the data were analysed using GraphPad Prism.
A general note: In TR-FRET formats the signal depends on donor and acceptor labels being close together.

The melting point is the temperature of the solid-liquid transition. Usually IC50 stands for the concentration needed to halve the response being measured. For the compound `Cn1c(=O)c2ncn(CC(=O)Nc3cccc(C(=O)N4CCSCC4)c3)c2n(C)c1=O` [Compound 15a, 2–(1,3-dimethyl-2,6-dioxo-1,2,3,6-tetrahydro-9H-purin-9-yl)-N-(3-(thiomorpholine-4-carbonyl)phenyl)acetamide], the melting point lay in the range of 246 to 248 °C. In addition, the IC50 in data set [1] is greater than 30 µM. Further, in data set [2], the “ATAD2 inhibitory activity, in words” value is given as “without ATAD2 inhibition activity” and the IC50 is greater than 25 µM.
`Cc1ccc(C(=O)N2CCSCC2)cc1NC(=O)Cn1cnc2c(=O)n(C)c(=O)n(C)c21` [Compound 15b, 2–(1,3-dimethyl-2,6-dioxo-1,2,3,6-tetrahydro-9H-purin-9-yl)-N-(2-methyl-5-(thiomorpholine-4-carbonyl)phenyl)acetamide] showed a melting point of 251 to 252 °C. In data set [1], this compound came in with an IC50 greater than 30 µM. In data set [2], the “ATAD2 inhibitory activity, in words” value was “weak inhibitory activities against ATAD2” and the IC50 came out at 19.3 ± 2.35 µM.
On the same counts, the results for `COc1ccc(C(=O)N2CCSCC2)cc1NC(=O)Cn1cnc2c(=O)n(C)c(=O)n(C)c21` [Compound 15c, 2–(1,3-dimethyl-2,6-dioxo-1,2,3,6-tetrahydro-9H-purin-9-yl)-N-(2-methoxy-5-(thiomorpholine-4-carbonyl)phenyl)acetamide] are 257 to 258 °C, greater than 30 µM, “weak inhibitory activities against ATAD2” and 14.8 ± 1.78 µM.
`Cn1c(=O)c2ncn(CC(=O)Nc3cccc(C(=O)N4CCS(=O)(=O)CC4)c3)c2n(C)c1=O` [Compound 15d, 2–(1,3-dimethyl-2,6-dioxo-1,2,3,6-tetrahydro-9H-purin-9-yl)-N-(3–(1,1-dioxidothiomorpholine-4-carbonyl)phenyl)acetamide] registered a melting point of 224 to 226 °C. Besides, the IC50 in data set [1] is greater than 30 µM. The IC50 in data set [2] is greater than 25 µM.
In the same order, the values of `Cc1ccc(C(=O)N2CCS(=O)(=O)CC2)cc1NC(=O)Cn1cnc2c(=O)n(C)c(=O)n(C)c21` [Compound 15e, 2–(1,3-dimethyl-2,6-dioxo-1,2,3,6-tetrahydro-9H-purin-9-yl)-N-(5–(1,1-dioxidothiomorpholine-4-carbonyl)-2-methylphenyl)acetamide] are 231 to 233 °C, greater than 30 µM and greater than 25 µM.
Take `COc1ccc(C(=O)N2CCS(=O)(=O)CC2)cc1NC(=O)Cn1cnc2c(=O)n(C)c(=O)n(C)c21` [Compound 15f, 2–(1,3-dimethyl-2,6-dioxo-1,2,3,6-tetrahydro-9H-purin-9-yl)-N-(5–(1,1-dioxidothiomorpholine-4-carbonyl)-2-methoxyphenyl)acetamide]: the figures for the IC50 in data set [1] and in data set [2] were greater than 30 µM and greater than 25 µM, respectively.
`Cn1c(=O)c2ncn(CC(=O)Nc3cccc(C(=O)N4CCOCC4)c3)c2n(C)c1=O` [Compound 15g, 2–(1,3-dimethyl-2,6-dioxo-1,2,3,6-tetrahydro-9H-purin-9-yl)-N-(3-(morpholine-4-carbonyl)phenyl)acetamide] gave a melting point of 266 to 268 °C. Further, the concentration for half-maximal inhibition (IC50) in data set [1] was greater than 30 µM. Moreover, in data set [2], the “ATAD2 inhibitory activity, in words” value is given as “weak inhibition potency” and the IC50 stood at 21.2 ± 3.17 µM.
As to `Cc1ccc(C(=O)N2CCOCC2)cc1NC(=O)Cn1cnc2c(=O)n(C)c(=O)n(C)c21` [Compound 15h, 2–(1,3-dimethyl-2,6-dioxo-1,2,3,6-tetrahydro-9H-purin-9-yl)-N-(2-methyl-5-(morpholine-4-carbonyl)phenyl)acetamide], the melting point lay in the range of 270 to 271 °C. In data set [1], this compound showed a half-inhibitory concentration (IC50) greater than 30 µM. Also, the concentration for half-maximal inhibition (IC50) in data set [2] was greater than 25 µM.
`COc1ccc(C(=O)N2CCOCC2)cc1NC(=O)Cn1cnc2c(=O)n(C)c(=O)n(C)c21` [Compound 15i, 2–(1,3-dimethyl-2,6-dioxo-1,2,3,6-tetrahydro-9H-purin-9-yl)-N-(2-methoxy-5-(morpholine-4-carbonyl)phenyl)acetamide]: the melting point was in the range of 278 to 279 °C. The compound also gave an IC50 in data set [1] of 28 ± 3.61 µM. In data set [2], the IC50 was found to be 11.3 ± 2.79 µM.
On the same counts, the results for `Cn1c(=O)c2ncn(CC(=O)Nc3cc(C(=O)N4CCOCC4)ccc3Cl)c2n(C)c1=O` [Compound 15j, N-(2-chloro-5-(morpholine-4-carbonyl)phenyl)-2–(1,3-dimethyl-2,6-dioxo-1,2,3,6-tetrahydro-9H-purin-9-yl)acetamide] are 262 to 264 °C, 26.1 ± 3.77 µM and 15.2 ± 3.63 µM.
`Cn1c(=O)c2ncn(CC(=O)Nc3cccc(C(=O)N4CCOCC4)c3F)c2n(C)c1=O` [Compound 15k, 2–(1,3-dimethyl-2,6-dioxo-1,2,3,6-tetrahydro-9H-purin-9-yl)-N-(2-fluoro-3-(morpholine-4-carbonyl)phenyl)acetamide] had a melting point of 265 to 267 °C. Moreover, the IC50 in data set [1] was greater than 30 µM. Moreover, in data set [2], the IC50 is greater than 25 µM.
In the same order, the values of `Cn1c(=O)c2ncn(CC(=O)Nc3cccc(C(=O)NC4CC4)c3)c2n(C)c1=O` [Compound 19a, N-cyclopropyl-3–(2-(1,3-dimethyl-2,6-dioxo-1,2,3,6-tetrahydro-9H-purin-9-yl)acetamido)benzamide] are 222 to 224 °C, greater than 30 µM and 13.8 ± 2.57 µM.
In the same order, the values of `Cc1ccc(C(=O)NC2CC2)cc1NC(=O)Cn1cnc2c(=O)n(C)c(=O)n(C)c21` [Compound 19b, N-cyclopropyl-3–(2-(1,3-dimethyl-2,6-dioxo-1,2,3,6-tetrahydro-9H-purin-9-yl)acetamido)-4-methylbenzamide] are 218 to 219 °C, 18.7 ± 3.06 µM and 9.06 ± 1.81 µM.
Compound `COc1ccc(C(=O)NC2CC2)cc1NC(=O)Cn1cnc2c(=O)n(C)c(=O)n(C)c21` [Compound 19c, N-cyclopropyl-3–(2-(1,3-dimethyl-2,6-dioxo-1,2,3,6-tetrahydro-9H-purin-9-yl)acetamido)-4-methoxybenzamide] had a melting point of 231 to 233 °C. This compound also registered an IC50 in data set [1] of 21.9 ± 4.03 µM. Also, the half-inhibitory concentration (IC50) in data set [2] was 9.19 ± 1.9 µM.
With `Cn1c(=O)c2ncn(CC(=O)Nc3cccc(C(=O)NC4CCCC4)c3)c2n(C)c1=O` [Compound 19d, N-cyclopentyl-3–(2-(1,3-dimethyl-2,6-dioxo-1,2,3,6-tetrahydro-9H-purin-9-yl)acetamido)benzamide], the melting point fell in the range of 207 to 208 °C. Half-maximal inhibition in data set [1] (IC50) was put at 17.9 ± 3.54 µM. In addition, the IC50 in data set [2] stood at 5.13 ± 0.72 µM.
Turning to `Cc1ccc(C(=O)NC2CCCC2)cc1NC(=O)Cn1cnc2c(=O)n(C)c(=O)n(C)c21` [Compound 19e, N-cyclopentyl-3–(2-(1,3-dimethyl-2,6-dioxo-1,2,3,6-tetrahydro-9H-purin-9-yl)acetamido)-4-methylbenzamide], the melting point was 211 to 213 °C. In data set [1], the IC50 is 11.3 ± 2.7 µM. In data set [2], the “increase in ATAD2 activity compared to 19d” value was “about a three-fold increase in activity” and the IC50 was 1.78 ± 0.39 µM.
With `Cn1c(=O)c2ncn(CC(=O)Nc3cccc(C(=O)NC4CCCCC4)c3)c2n(C)c1=O` [Compound 19g, N-cyclohexyl-3–(2-(1,3-dimethyl-2,6-dioxo-1,2,3,6-tetrahydro-9H-purin-9-yl)acetamido)benzamide], the melting point fell in the range of 195 to 197 °C. The compound also yielded an IC50 in data set [1] of 25.1 ± 4.27 µM. In data set [2], the half-inhibitory concentration (IC50) came out at 17.3 ± 3.92 µM.
`Cc1ccc(C(=O)NC2CCCCC2)cc1NC(=O)Cn1cnc2c(=O)n(C)c(=O)n(C)c21` [Compound 19h, N-cyclohexyl-3–(2-(1,3-dimethyl-2,6-dioxo-1,2,3,6-tetrahydro-9H-purin-9-yl)acetamido)-4-methylbenzamide] had a melting point of 199 to 201 °C. Further, half-maximal inhibition in data set [1] (IC50) required 11.7 ± 2.46 µM. Also, the IC50 in data set [2] is 19.7 ± 4.38 µM.
On the same counts, the results for `COc1ccc(C(=O)NC2CCCCC2)cc1NC(=O)Cn1cnc2c(=O)n(C)c(=O)n(C)c21` [Compound 19i, N-cyclohexyl-3–(2-(1,3-dimethyl-2,6-dioxo-1,2,3,6-tetrahydro-9H-purin-9-yl)acetamido)-4-methoxybenzamide] are 185 to 187 °C, 22 ± 3.35 µM and 12.3 ± 3.06 µM.
On the same counts, the results for `Cn1c(=O)c2ncn(CC(=O)Nc3cccc(C(=O)NC4CCCCCC4)c3)c2n(C)c1=O` [Compound 19j, N-cycloheptyl-3–(2-(1,3-dimethyl-2,6-dioxo-1,2,3,6-tetrahydro-9H-purin-9-yl)acetamido)benzamide] are 189 to 190 °C, greater than 30 µM and greater than 25 µM.
On to `Cc1ccc(C(=O)NC2CCCCCC2)cc1NC(=O)Cn1cnc2c(=O)n(C)c(=O)n(C)c21` [Compound 19k, N-cycloheptyl-3–(2-(1,3-dimethyl-2,6-dioxo-1,2,3,6-tetrahydro-9H-purin-9-yl)acetamido)-4-methylbenzamide], for which the melting point lay within 194 to 196 °C. The compound also yielded an IC50 in data set [1] greater than 30 µM. In addition, the IC50 in data set [2] is greater than 25 µM.
As for `Cc1cc2c(cc1N)n(C)c(=O)n2C` [TS-1], the IC50 in data set [2] was 411 µM.
Same read-out and setting: in the case of `Cn1c(=O)c2[nH]cnc2n(C)c1=O` [TS-2, theophylline] it was 324 µM.
